Consider one substance from patent US20110054029A1, “WATER-SOLUBLE DIETARY FATTY ACIDS” (priority 2009, published 2011).

This data set concerns Caco-2 cell monolayers. As to the kind of experiment: Permeability across Caco-2 cell monolayers. Type of data set: in vitro ADME. Particulars: Caco-2 monolayers after exposure to test article, 37° C. Here is the method:
To test the permeability of dietary fatty acids across Caco-2 cell monolayers, Caco-2 cell monolayers are grown to confluence on collagen-coated, microporous, polycarbonate membranes in 12-well Costar Transwell® plates.
The test article is the aqueous dietary fatty acids formulation, and the dosing concentration is 2 μM in the assay buffer (HBSSg) as in the previous example. Cell monolayers are dosed on the apical side (A-to-B) or basolateral side (B-to-A) and incubated at 37° C. with 5% CO2 in a humidified incubator. Samples are taken from the donor chamber at 120 minutes, and samples from the receiver chamber are collected at 60 and 120 minutes. Each determination is performed in duplicate. Lucifer yellow permeability is also measured for each monolayer after being subjected to the test article to ensure no damage is inflicted to the cell monolayers during the permeability experiment. Permeability of samples of atenolol, propranolol and digoxin are also measured to compare with the permeability of the dietary fatty acids sample. All samples are assayed for dietary fatty acids, or corresponding comparative compounds, by LC/MS/MS using electrospray ionization. The apparent permeability (Papp) and percent recovery are calculated as is known in the art. […]
(Caco-2 monolayers are a common model of the intestinal barrier.)

As to Lucifer yellow, the “Papp (post-experiment monolayer integrity control)” value is less than 0.8 ×10⁻⁶ cm/s.
